Experimental data as given in ChEMBL document CHEMBL5465560, “Selectivity Literature for EUbOPEN Chemogenomic Library” (2024).

Assays:
[1] = target: T1, cAMP-dependent protein kinase catalytic subunit PRKX (Homo sapiens) (UniProt P51817); assay: Selectivity interaction (KinomeScan (DiscoverX)) EUB0000666a PRKX; conditions: at 10 µM
T1 sequence (whole entry): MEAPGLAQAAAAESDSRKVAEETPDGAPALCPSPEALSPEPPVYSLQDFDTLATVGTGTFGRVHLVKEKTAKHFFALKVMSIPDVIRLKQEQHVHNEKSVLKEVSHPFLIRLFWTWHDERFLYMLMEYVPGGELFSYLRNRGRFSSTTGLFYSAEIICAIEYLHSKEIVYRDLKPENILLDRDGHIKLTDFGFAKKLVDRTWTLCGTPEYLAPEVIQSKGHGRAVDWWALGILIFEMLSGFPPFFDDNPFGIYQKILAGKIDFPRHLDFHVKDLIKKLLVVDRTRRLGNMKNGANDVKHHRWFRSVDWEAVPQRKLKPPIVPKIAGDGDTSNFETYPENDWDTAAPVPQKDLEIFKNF

[2] = target: Mitogen-activated protein kinase 11 (Homo sapiens) (UniProt Q15759); assay: Selectivity interaction (KinomeScan (DiscoverX)) EUB0000666a MAPK11; conditions: at 10 µM
Sequence of Mitogen-activated protein kinase 11 (Homo sapiens) (Q15759 whole entry): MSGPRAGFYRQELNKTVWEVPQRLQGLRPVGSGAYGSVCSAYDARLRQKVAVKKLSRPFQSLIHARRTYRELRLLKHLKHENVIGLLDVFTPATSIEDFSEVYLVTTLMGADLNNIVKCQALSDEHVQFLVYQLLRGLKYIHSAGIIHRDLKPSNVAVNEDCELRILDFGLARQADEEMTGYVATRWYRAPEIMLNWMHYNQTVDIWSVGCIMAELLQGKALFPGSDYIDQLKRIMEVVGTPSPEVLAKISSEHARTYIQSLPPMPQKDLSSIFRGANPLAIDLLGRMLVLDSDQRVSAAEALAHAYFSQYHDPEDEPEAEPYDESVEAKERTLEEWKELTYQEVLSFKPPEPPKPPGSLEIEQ

[3] = target: T2, Myosin-IIIb (Homo sapiens) (UniProt Q8WXR4); assay: Selectivity interaction (KinomeScan (DiscoverX)) EUB0000695a MYO3B; conditions: at 100 nM
T2 sequence (whole entry): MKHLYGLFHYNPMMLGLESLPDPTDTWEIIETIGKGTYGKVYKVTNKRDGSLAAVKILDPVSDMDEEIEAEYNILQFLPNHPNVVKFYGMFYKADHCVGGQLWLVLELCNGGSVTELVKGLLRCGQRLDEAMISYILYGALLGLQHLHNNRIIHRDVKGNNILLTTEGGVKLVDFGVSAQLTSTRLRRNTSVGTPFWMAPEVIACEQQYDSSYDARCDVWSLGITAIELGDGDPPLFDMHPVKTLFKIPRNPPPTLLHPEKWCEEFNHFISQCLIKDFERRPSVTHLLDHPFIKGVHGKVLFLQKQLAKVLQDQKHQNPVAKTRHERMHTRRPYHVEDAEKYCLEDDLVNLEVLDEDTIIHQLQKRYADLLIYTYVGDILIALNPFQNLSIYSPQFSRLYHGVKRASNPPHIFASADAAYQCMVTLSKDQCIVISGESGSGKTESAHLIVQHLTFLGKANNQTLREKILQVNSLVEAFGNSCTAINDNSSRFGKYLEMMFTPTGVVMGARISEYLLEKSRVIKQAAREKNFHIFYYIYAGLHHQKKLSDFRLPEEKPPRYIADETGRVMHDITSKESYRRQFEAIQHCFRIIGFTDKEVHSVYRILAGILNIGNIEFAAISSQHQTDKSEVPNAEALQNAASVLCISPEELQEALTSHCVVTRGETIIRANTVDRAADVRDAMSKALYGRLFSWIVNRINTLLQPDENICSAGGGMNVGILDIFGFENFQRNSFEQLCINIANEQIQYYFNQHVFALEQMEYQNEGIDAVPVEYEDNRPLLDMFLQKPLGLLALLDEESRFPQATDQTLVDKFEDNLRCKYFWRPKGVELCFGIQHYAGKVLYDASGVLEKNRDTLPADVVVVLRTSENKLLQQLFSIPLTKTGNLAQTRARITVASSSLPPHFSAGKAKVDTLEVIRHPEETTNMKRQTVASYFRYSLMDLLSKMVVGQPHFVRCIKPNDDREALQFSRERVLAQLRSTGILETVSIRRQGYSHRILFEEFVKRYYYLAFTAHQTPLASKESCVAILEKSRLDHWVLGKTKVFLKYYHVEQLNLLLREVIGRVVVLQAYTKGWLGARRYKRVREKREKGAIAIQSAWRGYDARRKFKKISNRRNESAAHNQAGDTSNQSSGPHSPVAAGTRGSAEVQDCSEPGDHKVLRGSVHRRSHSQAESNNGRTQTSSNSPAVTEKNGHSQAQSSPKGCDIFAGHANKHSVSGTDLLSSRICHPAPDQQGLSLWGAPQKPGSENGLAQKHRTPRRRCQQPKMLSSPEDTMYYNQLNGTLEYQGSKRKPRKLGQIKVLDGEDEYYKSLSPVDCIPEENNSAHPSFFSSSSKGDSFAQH

[4] = target: T3, Activin receptor type-1 (Homo sapiens) (UniProt Q04771); assay: Selectivity interaction (KinomeScan (DiscoverX)) EUB0000655a ACVR1; conditions: at 10 µM
T3 sequence (whole entry): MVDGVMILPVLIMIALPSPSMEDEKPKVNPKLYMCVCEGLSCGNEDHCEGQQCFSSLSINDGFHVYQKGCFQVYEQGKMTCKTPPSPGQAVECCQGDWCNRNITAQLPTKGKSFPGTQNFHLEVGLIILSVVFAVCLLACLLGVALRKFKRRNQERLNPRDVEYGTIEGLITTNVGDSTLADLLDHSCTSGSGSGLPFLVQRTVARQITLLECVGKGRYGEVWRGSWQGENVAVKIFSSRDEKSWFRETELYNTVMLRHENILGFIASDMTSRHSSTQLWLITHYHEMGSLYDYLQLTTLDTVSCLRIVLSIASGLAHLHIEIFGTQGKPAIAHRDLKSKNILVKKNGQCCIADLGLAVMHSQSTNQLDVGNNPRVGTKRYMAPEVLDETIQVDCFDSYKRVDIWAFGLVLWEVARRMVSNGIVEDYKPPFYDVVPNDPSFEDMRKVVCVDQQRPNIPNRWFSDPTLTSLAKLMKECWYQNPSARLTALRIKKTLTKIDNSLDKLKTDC

[5] = target: Fibroblast growth factor receptor 2 (Homo sapiens) (UniProt P21802); assay: Selectivity interaction (KinomeScan (DiscoverX)) EUB0001079a FGFR2; conditions: at 1 µM
Sequence of Fibroblast growth factor receptor 2 (Homo sapiens) (P21802 22-821 limits assumed): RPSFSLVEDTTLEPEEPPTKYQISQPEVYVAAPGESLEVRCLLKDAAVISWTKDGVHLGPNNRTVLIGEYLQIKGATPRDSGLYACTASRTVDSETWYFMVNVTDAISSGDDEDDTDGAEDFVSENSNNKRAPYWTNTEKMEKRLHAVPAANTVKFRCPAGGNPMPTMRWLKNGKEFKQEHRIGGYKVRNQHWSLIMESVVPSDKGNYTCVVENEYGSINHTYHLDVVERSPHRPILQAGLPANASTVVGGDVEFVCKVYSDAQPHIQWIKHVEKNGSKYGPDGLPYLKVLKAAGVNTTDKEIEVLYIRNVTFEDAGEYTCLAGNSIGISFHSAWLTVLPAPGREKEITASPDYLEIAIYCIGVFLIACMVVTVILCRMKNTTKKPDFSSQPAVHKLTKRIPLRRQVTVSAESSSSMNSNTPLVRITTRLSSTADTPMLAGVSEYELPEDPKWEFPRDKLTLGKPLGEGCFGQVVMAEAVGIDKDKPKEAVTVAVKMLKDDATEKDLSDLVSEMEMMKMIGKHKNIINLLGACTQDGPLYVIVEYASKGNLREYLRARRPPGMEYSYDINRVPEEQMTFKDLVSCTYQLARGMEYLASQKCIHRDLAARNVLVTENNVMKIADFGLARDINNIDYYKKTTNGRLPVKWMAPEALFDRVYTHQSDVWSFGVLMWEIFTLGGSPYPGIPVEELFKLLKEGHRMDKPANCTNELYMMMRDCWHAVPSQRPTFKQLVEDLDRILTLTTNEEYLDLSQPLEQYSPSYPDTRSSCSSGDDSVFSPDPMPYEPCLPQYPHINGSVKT

[6] = target: 5-hydroxytryptamine receptor 2B (Homo sapiens, UniProt P41595); assay: Selectivity interaction (GPCR panel (PDSP screen)) EUB0001079a HTR2B; conditions: at 10 µM
Sequence of 5-hydroxytryptamine receptor 2B (P41595 whole entry): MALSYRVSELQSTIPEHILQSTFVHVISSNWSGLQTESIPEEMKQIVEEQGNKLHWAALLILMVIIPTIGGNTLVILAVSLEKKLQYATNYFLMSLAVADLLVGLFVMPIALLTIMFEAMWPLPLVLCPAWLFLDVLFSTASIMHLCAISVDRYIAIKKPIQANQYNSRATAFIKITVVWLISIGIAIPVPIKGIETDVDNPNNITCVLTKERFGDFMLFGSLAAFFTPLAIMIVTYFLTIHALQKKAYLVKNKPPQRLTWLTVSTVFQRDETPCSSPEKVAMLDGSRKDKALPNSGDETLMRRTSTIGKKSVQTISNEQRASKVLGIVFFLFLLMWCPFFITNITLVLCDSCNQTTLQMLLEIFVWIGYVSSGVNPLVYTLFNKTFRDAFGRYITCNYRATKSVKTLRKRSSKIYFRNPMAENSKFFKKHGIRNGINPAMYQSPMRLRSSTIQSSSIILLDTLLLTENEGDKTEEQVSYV

[7] = target: Dual specificity tyrosine-phosphorylation-regulated kinase 1A (Homo sapiens, UniProt Q13627); assay: Selectivity interaction (KinomeScan (DiscoverX)) EUB0000092b DYRK1A; conditions: at 10 µM
[8] = test system: Mast/stem cell growth factor receptor Kit (Homo sapiens), P10721 [V559D]; conditions: at 10 µM
Sequence of Mast/stem cell growth factor receptor Kit (Homo sapiens), P10721 [V559D] (P10721 whole entry V559D): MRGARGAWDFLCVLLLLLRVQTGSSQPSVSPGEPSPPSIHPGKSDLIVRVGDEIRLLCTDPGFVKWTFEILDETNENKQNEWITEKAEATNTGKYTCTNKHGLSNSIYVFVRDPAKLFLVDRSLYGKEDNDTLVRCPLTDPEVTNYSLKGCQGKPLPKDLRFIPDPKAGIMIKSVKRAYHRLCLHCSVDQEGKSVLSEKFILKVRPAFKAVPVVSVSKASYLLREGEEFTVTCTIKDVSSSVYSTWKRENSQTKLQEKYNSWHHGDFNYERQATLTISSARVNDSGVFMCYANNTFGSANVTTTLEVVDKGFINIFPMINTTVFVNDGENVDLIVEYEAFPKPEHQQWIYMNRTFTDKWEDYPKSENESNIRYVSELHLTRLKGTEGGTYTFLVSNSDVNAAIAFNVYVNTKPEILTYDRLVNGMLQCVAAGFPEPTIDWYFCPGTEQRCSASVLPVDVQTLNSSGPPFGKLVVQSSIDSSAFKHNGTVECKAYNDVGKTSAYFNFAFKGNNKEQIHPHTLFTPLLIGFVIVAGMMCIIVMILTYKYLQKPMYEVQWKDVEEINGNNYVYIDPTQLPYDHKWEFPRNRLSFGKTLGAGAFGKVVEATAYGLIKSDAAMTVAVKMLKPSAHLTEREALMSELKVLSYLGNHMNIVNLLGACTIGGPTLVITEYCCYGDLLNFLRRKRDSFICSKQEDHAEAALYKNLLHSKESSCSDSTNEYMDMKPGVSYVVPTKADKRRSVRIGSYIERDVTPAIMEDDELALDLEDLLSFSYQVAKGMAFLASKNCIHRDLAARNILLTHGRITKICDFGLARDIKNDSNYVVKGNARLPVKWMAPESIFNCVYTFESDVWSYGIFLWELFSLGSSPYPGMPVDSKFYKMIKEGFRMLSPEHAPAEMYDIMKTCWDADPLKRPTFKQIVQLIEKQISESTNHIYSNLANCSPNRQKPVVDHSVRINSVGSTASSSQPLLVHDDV

[9] = target: Death-associated protein kinase 1 (Homo sapiens, UniProt P53355); conditions: at 10 µM
Sequence of Death-associated protein kinase 1 (P53355 whole entry, looked up): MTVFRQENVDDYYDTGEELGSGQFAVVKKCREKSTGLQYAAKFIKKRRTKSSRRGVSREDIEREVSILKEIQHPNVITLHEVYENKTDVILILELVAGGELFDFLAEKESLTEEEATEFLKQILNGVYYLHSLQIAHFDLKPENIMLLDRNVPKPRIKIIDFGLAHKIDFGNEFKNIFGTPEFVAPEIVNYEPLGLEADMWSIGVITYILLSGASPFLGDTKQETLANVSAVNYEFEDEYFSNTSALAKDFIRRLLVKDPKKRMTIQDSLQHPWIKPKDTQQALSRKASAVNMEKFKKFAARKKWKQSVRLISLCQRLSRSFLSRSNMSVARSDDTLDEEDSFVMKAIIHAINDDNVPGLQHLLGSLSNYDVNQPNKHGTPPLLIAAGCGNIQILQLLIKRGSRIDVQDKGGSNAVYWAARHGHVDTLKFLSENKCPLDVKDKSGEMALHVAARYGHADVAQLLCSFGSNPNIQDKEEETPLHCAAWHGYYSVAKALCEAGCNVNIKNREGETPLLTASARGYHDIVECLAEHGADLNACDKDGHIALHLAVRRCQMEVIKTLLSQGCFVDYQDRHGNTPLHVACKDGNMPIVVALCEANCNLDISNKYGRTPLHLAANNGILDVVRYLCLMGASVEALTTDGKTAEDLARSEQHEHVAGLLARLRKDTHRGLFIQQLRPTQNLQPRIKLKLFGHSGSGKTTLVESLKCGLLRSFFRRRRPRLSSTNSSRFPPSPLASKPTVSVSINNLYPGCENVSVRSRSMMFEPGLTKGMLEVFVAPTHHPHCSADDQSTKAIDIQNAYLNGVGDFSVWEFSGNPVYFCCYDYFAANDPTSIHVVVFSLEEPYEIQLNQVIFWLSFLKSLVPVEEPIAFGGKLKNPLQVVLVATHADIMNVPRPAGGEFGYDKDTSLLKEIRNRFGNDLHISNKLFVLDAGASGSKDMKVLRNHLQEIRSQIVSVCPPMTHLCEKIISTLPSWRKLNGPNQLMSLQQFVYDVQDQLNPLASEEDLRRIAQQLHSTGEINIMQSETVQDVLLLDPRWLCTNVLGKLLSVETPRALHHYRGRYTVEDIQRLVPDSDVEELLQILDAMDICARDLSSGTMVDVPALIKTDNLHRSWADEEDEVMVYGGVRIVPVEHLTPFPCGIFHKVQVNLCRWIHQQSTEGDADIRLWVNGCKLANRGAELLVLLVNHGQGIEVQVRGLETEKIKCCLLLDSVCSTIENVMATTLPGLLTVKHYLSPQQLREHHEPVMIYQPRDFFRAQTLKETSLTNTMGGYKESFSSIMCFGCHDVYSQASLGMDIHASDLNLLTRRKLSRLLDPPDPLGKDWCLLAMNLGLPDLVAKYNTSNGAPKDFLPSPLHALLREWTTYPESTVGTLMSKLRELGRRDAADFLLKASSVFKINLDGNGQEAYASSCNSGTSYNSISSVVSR

## O=C(NOC[C@H](O)CO)c1ccc(F)c(F)c1Nc1ccc(I)cc1F
[1]
  % of control: 100%
[2]
  % of control: 100%

## Cc1cc(F)c(C(=O)Nc2cccc(-c3nncn3C(C)C)n2)cc1-n1cnc(C2CC2)c1
[3]
  % of control: 80%

## CN(C)CCOc1ccc(-c2nc(-c3ccncc3)c(-c3ccc4c(c3)CC/C4=N\O)[nH]2)cc1
[4]
  % of control: 51%

## Nc1cnc(N2CCc3cc(S(=O)(=O)Nc4c(F)cc(Cl)cc4F)cc(N4CCCC4=O)c32)nc1 [TP-020n]
[5]
  % of control: 100%
[6]
  % of inhibition: 12.9%

## CCC(=O)N1CCN(c2ccc(-n3c(=O)ccc4cnc5ccc(-c6cnc7ccccc7c6)cc5c43)cc2C(F)(F)F)CC1
[7]
  % of control: 71%

## Cc1cc([C@@H](C)Nc2ccccc2C(=O)O)c2nc(N3CCOCC3)cc(=O)n2c1 [AZD-6482]
[8]
  % of control: 91%
[9]
  % of control: 95%
